One experiment deals with Bacillus phage SPO1 Acb4. Format: binding. To be noted: for Kd: fraction bound fit to a single binding model, n = 2.
In experiment [1] the target is Bacillus phage SPO1 anti-CBASS 4 (Acb4) (Bacillus phage SPO1). Nature of the experiment: SEC-MALS; recombinant apo SPO1 Acb4 in solution; complex migrates at ~42.3 kDa. A general note: Size exclusion chromatography separates by hydrodynamic size, large species first.
The target of a further experiment is T1, Acb4 (SPO1 Acb4) (Bacillus phage SPO1, UniProt B6V2Y3).
T1 construct: gene 1.3; recombinant from E. coli BL21(DE3)-RIL, N-terminal 6xHis-SUMO2 fusion, tag cleaved with SENP2; 96 amino acids, homotetramer
T1 sequence (B6V2Y3 1-96): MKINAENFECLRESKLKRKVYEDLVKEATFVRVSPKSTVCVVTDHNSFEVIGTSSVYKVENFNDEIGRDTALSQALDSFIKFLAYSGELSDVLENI
Nature of the experiment: Electrophoretic mobility shift assay: titration of recombinant Acb4 with 20 nM alpha-32P-radiolabelled cyclic dinucleotide, 50 mM Tris-HCl pH 7.5, 5 mM MgCl2, 10 mM KCl, 1 mM TCEP, 30 min on ice, nondenaturing 6% PAGE, fraction bound fitted to a single binding model. The following applies: n = 2.

Like-named read-outs stand apart in the source and are kept apart here.

In general, Kd refers to a measure of binding affinity in units of concentration. With `Nc1nc2c(ncn2[C@@H]2O[C@@H]3COP(=O)(O)O[C@H]4[C@@H](O)[C@H](n5cnc6c(N)ncnc65)O[C@@H]4COP(=O)(O)O[C@H]3[C@H]2O)c(=O)[nH]1` [3′3′-cGAMP, 3′3′-cyclic GMP-AMP], the Kd at Bacillus phage SPO1 Acb4 was roughly 157 nM; at Bacillus phage SPO1 Acb4 (listed as 3'3'-cGAMP), 157 nM. The term stoichiometry N denotes the number of molecules, sites or subunits per partner or assembly. Consider “Bacillus phage SPO1 anti-CBASS 4 (Acb4) (natural protein)”, for which the stoichiometry N in experiment [1] is 4. In the case of `Nc1nc2c(ncn2[C@@H]2O[C@@H]3COP(=O)(O)O[C@H]4[C@@H](O)[C@H](n5cnc6c(N)ncnc65)O[C@@H]4COP(=O)(O)O[C@H]3[C@H]2O)c(=O)[nH]1` [3′3′-cGAMP, 3′3′-cyclic GMP-AMP, c[G(3′,5′)pA(3′,5′)p]], the Kd on Acb4 (SPO1 Acb4) turned out to be 157 nM. Turning to `Nc1ncnc2c1ncn2[C@@H]1O[C@@H]2COP(=O)(O)O[C@H]3[C@@H](O)[C@H](n4ccc(=O)[nH]c4=O)O[C@@H]3COP(=O)(O)O[C@H]2[C@H]1O` [3′3′-cUA], in the experiment on Bacillus phage SPO1 Acb4, the “interaction with Acb4 (EMSA)” value was “recognizes” and the Kd stood at 262 nM. As for `Nc1ncnc2c1ncn2[C@@H]1O[C@@H]2COP(=O)(O)O[C@@H]3[C@H](O)[C@@H](COP(=O)(O)O[C@H]2[C@H]1O)O[C@H]3n1ccc(=O)[nH]c1=O` [2′3′-cUA], in the experiment on Bacillus phage SPO1 Acb4, the “interaction with Acb4 (EMSA)” value is given as “recognizes” and the affinity, expressed as Kd, was 641 nM. On to `Nc1ncnc2c1ncn2[C@@H]1O[C@@H]2COP(=O)(O)O[C@@H]3[C@H](O)[C@@H](COP(=O)(O)O[C@H]2[C@H]1O)O[C@H]3n1ccc(=O)[nH]c1=O` [2′3′-cUA, 2′3′-cyclic UMP-AMP, c[U(2′,5′)pA(3′,5′)p]], for which the Kd on Acb4 (SPO1 Acb4) came to 641 nM. For `Nc1nc2c(ncn2[C@@H]2O[C@@H]3COP(=O)(O)O[C@H]4[C@@H](O)[C@H](n5cnc6c(=O)[nH]c(N)nc65)O[C@@H]4COP(=O)(O)O[C@H]3[C@H]2O)c(=O)[nH]1` [3′3′-cGG, 3′3′-c-di-GMP], the “interaction with Acb4 (EMSA)” value with Bacillus phage SPO1 Acb4 is “No interaction was detected”. Same read-out and setting: the entry for `Nc1ncnc2c1ncn2[C@@H]1O[C@@H]2COP(=O)(O)O[C@H]3[C@@H](O)[C@H](n4cnc5c(N)ncnc54)O[C@@H]3COP(=O)(O)O[C@H]2[C@H]1O` [3′3′-cAA, 3′3′-c-di-AMP] is “No interaction was detected”. Take `Nc1ncnc2c1ncn2[C@@H]1O[C@@H]2COP(=O)(O)O[C@H]3[C@@H](O)[C@H](n4ccc(=O)[nH]c4=O)O[C@@H]3COP(=O)(O)O[C@H]2[C@H]1O` [3′3′-cUA, 3′3′-cyclic UMP-AMP, c[U(3′,5′)pA(3′,5′)p]]: the Kd at Acb4 (SPO1 Acb4) turned out to be 262 nM.

Source of the values: paper doi:10.1101/2024.12.30.630793 (bioRxiv, 2024).
